Columns and labels:
[1] = Effect of complexation agent amount on expulsion percent (Example 11); settings: Ca^2+ 2 ppm, pH 2.9
Procedure: A water solution (110 ml) containing known amount of single cationic element or elements, typically 0.5-200 ppm, was prepared from Merch Titrisol® standard solution. After adjusting pH by using acid (e.g. HCl or HNO3) or base (e.g. NaOH) to desired initial value, sample A (10 ml) was taken followed by adding 100 mg of selected solid complexation agent. The mixture was stirred at room temperature for 24 h and sample B (10 ml) was taken. Samples A and B were filtrated separately trough 0.2 μm syringe filter and the concentration of the studied element or elements in both solution was determined by using atomic absorption spectrophotometer. The expulsion percent was determined from the concentration differences between the sample solutions A and B.
Effect of amount of complexation agent 1a to expulsion percent was tested with 2.0 ppm calcium (Ca^2+) solution. A solution (100 ml) containing 2.0 ppm of calcium was stirred for 24 h with desired amount of complexation agent 1a (25 to 301 mg) at pH 2.9. Expulsions percent were determined for each solution using the general procedure and the results are collected in Table 6.

[2] = Effect of contact time on expulsion percent, Pb^2+ and Hg^2+ spiked TS 5, 1a 100 mg/100 ml (Example 13)
Procedure: A test solution containing 1-15 mg/l of Al^3+, Fe^2/3+, Mg^2+, Mn^2+, Ni^2+ and Zn^2+; 0.1-0.9 mg/l of Ca^2+ and Na^+; and trace amount of other Cr^3+, Co^2+, Cu^2+, Eu^3+, La^3+, Nd^3+, Y^3+, UO2^2+ and Nb^5+ cations were prepared.
Effect of contact time to selected metal expulsion per cents was tested using TS 5 with comlexation agent 1a. TS 5 (100 ml), spiked with known amounts of lead (Pb^2+) and mercury (Hg^2+) cations, was stirred with 1a (100 mg) for selected times followed by separation of 1a by filtration trough 0.2 μm syringe filter. Metal concentrations after 5 min, 15 min, 30 min, 1 h, 2 h, 3.5 h, 6.5 h and 29.5 h were determined by using ICP-AES analysis.

[3] = Removal of Cr^3+ from acidic solution, TS 4 diluted 1:100 (Example 19); settings: TS 4 diluted 1:100, pH 3.67, 1.0 g agent in 50 ml, 24 h
Procedure: A test solution containing 24000 mg/l of Na^+; 50-2000 mg/l of Ca^2+, Cr^3+, K^+ and Mg^2+; and trace amount of Al^3+, Fe^2/3+, Mn^2+, Ni^2+, Sr^2+, V^4+, and Zn^2+ cations were prepared.
TS 4 was diluted to 1:100 with water, pH (3.67) of the solution was determined and sample A was taken. A part (50 ml) of the diluted solution was treated with 1a, 6d or 7a (1.0 g) for 24 h with stirring at room temperature. After filtration trough 0.2 μm syringe filter, the expulsion per for Cr(III) was determined compared to original solution A. The results of expulsion per cents of Cr^3+ and some other elements are given in Table 13.

## NCCCCCCCCCCC(O)(P(=O)(O)O)P(=O)(O)O [Compound 1a, 11-Amino-1-hydroxyundecane-1,1-diyldiphosphonic acid]
[1]; 25 mg of 1a in 100 ml
  Expulsion [%]: 41.3%
[1]; 52 mg of 1a in 100 ml
  Expulsion [%]: 45.9%
[1]; 75 mg of 1a in 100 ml
  Expulsion [%]: 53.6%
[1]; 101 mg of 1a in 100 ml
  Expulsion [%]: 59.4%
[1]; 125 mg of 1a in 100 ml
  Expulsion [%]: 63.6%
[1]; 150 mg of 1a in 100 ml
  Expulsion [%]: 67.1%
[1]; 175 mg of 1a in 100 ml
  Expulsion [%]: 70.2%
[1]; 200 mg of 1a in 100 ml
  Expulsion [%]: 71.0%
[1]; 225 mg of 1a in 100 ml
  Expulsion [%]: 76.6%
[1]; 250 mg of 1a in 100 ml
  Expulsion [%]: 79.6%
[1]; 275 mg of 1a in 100 ml
  Expulsion [%]: 85.6%
[1]; 301 mg of 1a in 100 ml
  Expulsion [%]: 83.5%
[2]; Al^3+, 5 min
  Expulsion [%]: 8.3%
[2]; Al^3+, 15 min
  Expulsion [%]: 5.5%
[2]; Al^3+, 30 min
  Expulsion [%]: 7.1%
[2]; Al^3+, 60 min
  Expulsion [%]: 5.9%
[2]; Al^3+, 120 min
  Expulsion [%]: 8.7%
[2]; Al^3+, 210 min
  Expulsion [%]: 18.5%
[2]; Al^3+, 390 min
  Expulsion [%]: 26.0%
[2]; Al^3+, 1770 min
  Expulsion [%]: 27.2%
[2]; Ca^2+, 5 min
  Expulsion [%]: 2.7%
[2]; Ca^2+, 15 min
  Expulsion [%]: 0%
[2]; Ca^2+, 30 min
  Expulsion [%]: 0%
[2]; Ca^2+, 60 min
  Expulsion [%]: 0%
[2]; Ca^2+, 120 min
  Expulsion [%]: 0%
[2]; Ca^2+, 210 min
  Expulsion [%]: 0%
[2]; Ca^2+, 390 min
  Expulsion [%]: 9.8%
[2]; Ca^2+, 1770 min
  Expulsion [%]: 18.7%
[2]; Cd^2+, 5 min
  Expulsion [%]: 2.9%
[2]; Cd^2+, 15 min
  Expulsion [%]: 3.9%
[2]; Cd^2+, 30 min
  Expulsion [%]: 5.1%
[2]; Cd^2+, 60 min
  Expulsion [%]: 7.5%
[2]; Cd^2+, 120 min
  Expulsion [%]: 10.9%
[2]; Cd^2+, 210 min
  Expulsion [%]: 15.0%
[2]; Cd^2+, 390 min
  Expulsion [%]: 28.1%
[2]; Cd^2+, 1770 min
  Expulsion [%]: 36.6%
[2]; Fe^2/3+, 5 min
  Expulsion [%]: 0%
[2]; Fe^2/3+, 15 min
  Expulsion [%]: 0.7%
[2]; Fe^2/3+, 30 min
  Expulsion [%]: 0%
[2]; Fe^2/3+, 60 min
  Expulsion [%]: 3.0%
[2]; Fe^2/3+, 120 min
  Expulsion [%]: 6.7%
[2]; Fe^2/3+, 210 min
  Expulsion [%]: 8.9%
[2]; Fe^2/3+, 390 min
  Expulsion [%]: 20.7%
[2]; Fe^2/3+, 1770 min
  Expulsion [%]: 19.3%
[2]; Hg^2+, 5 min
  Expulsion [%]: 59.9%
[2]; Hg^2+, 15 min
  Expulsion [%]: 60.4%
[2]; Hg^2+, 30 min
  Expulsion [%]: 58.5%
[2]; Hg^2+, 60 min
  Expulsion [%]: 56.4%
[2]; Hg^2+, 120 min
  Expulsion [%]: 57.1%
[2]; Hg^2+, 210 min
  Expulsion [%]: 55.7%
[2]; Hg^2+, 390 min
  Expulsion [%]: 57.0%
[2]; Hg^2+, 1770 min
  Expulsion [%]: 49.6%
[2]; Mg^2+, 5 min
  Expulsion [%]: 1.4%
[2]; Mg^2+, 15 min
  Expulsion [%]: 1.8%
[2]; Mg^2+, 30 min
  Expulsion [%]: 0.2%
[2]; Mg^2+, 60 min
  Expulsion [%]: 4.4%
[2]; Mg^2+, 120 min
  Expulsion [%]: 5.8%
[2]; Mg^2+, 210 min
  Expulsion [%]: 6.9%
[2]; Mg^2+, 390 min
  Expulsion [%]: 16.4%
[2]; Mg^2+, 1770 min
  Expulsion [%]: 19.8%
[2]; Mn^2+, 5 min
  Expulsion [%]: 3.4%
[2]; Mn^2+, 15 min
  Expulsion [%]: 4.3%
[2]; Mn^2+, 30 min
  Expulsion [%]: 4.3%
[2]; Mn^2+, 60 min
  Expulsion [%]: 6.3%
[2]; Mn^2+, 120 min
  Expulsion [%]: 10.5%
[2]; Mn^2+, 210 min
  Expulsion [%]: 13.1%
[2]; Mn^2+, 390 min
  Expulsion [%]: 27.0%
[2]; Mn^2+, 1770 min
  Expulsion [%]: 29.1%
[2]; Ni^2+, 5 min
  Expulsion [%]: 1.4%
[2]; Ni^2+, 15 min
  Expulsion [%]: 1.8%
[2]; Ni^2+, 30 min
  Expulsion [%]: 1.4%
[2]; Ni^2+, 60 min
  Expulsion [%]: 4.1%
[2]; Ni^2+, 120 min
  Expulsion [%]: 5.0%
[2]; Ni^2+, 210 min
  Expulsion [%]: 7.8%
[2]; Ni^2+, 390 min
  Expulsion [%]: 13.2%
[2]; Ni^2+, 1770 min
  Expulsion [%]: 15.5%
[2]; Pb^2+, 5 min
  Expulsion [%]: 28.5%
[2]; Pb^2+, 15 min
  Expulsion [%]: 34.7%
[2]; Pb^2+, 30 min
  Expulsion [%]: 56.3%
[2]; Pb^2+, 60 min
  Expulsion [%]: 49.4%
[2]; Pb^2+, 120 min
  Expulsion [%]: 65.7%
[2]; Pb^2+, 210 min
  Expulsion [%]: 89.8%
[2]; Pb^2+, 390 min
  Expulsion [%]: 94.6%
[2]; Pb^2+, 1770 min
  Expulsion [%]: 98.1%
[2]; Zn^2+, 5 min
  Expulsion [%]: 2.5%
[2]; Zn^2+, 15 min
  Expulsion [%]: 3.7%
[2]; Zn^2+, 30 min
  Expulsion [%]: 4.9%
[2]; Zn^2+, 60 min
  Expulsion [%]: 6.5%
[2]; Zn^2+, 120 min
  Expulsion [%]: 9.8%
[2]; Zn^2+, 210 min
  Expulsion [%]: 13.9%
[2]; Zn^2+, 390 min
  Expulsion [%]: 27.1%
[2]; Zn^2+, 1770 min
  Expulsion [%]: 30.8%
[3]; Ca^2+
  Expulsion [%] Ca^2+: 67%
[3]; Cr^3+
  Expulsion [%] Cr^3+: 91%
[3]; K^+
  Expulsion [%] K^+: 36%
[3]; Mg^2+
  Expulsion [%] Mg^2+: 74%
[3]; Na^+
  Expulsion [%] Na^+: 14%
[3]; Zn^2+
  Expulsion [%] Zn^2+: >39^1) %
